What was measured:
Test in all cases: relative viability (nuclei count vs DMSO), 5 days (fraction); higher = more cells survive
Everolimus + Lapatinib = compound: CO[C@H]1C[C@@H]2CC[C@@H](C)[C@@](O)(O2)C(=O)C(=O)N2CCCC[C@H]2C(=O)O[C@H]([C@H](C)C[C@@H]2CC[C@@H](OCCO)[C@H](OC)C2)CC(=O)[C@H](C)/C=C(\C)[C@@H](O)[C@@H](OC)C(=O)[C@H](C)C[C@H](C)/C=C/C=C/C=C/1C [Everolimus] + CS(=O)(=O)CCNCc1ccc(-c2ccc3ncnc(Nc4ccc(OCc5cccc(F)c5)c(Cl)c4)c3c2)o1 [Lapatinib] (partner 2 µM)
How it was run: (§1)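 Relative viability was taken as the ratio of nuclei in treated wells to nuclei in vehicle wells. Lung cancer cell lines in 1536-well plates received compounds by pin tool one day after seeding, either one drug alone or a fixed anchor-drug dose plus five library-drug doses (not always all listed) in √10 steps. Nuclei were counted on 4× images after 5 days of treatment, and values are medians of duplicate plates.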

Everolimus + Olaparib = compound: CO[C@H]1C[C@@H]2CC[C@@H](C)[C@@](O)(O2)C(=O)C(=O)N2CCCC[C@H]2C(=O)O[C@H]([C@H](C)C[C@@H]2CC[C@@H](OCCO)[C@H](OC)C2)CC(=O)[C@H](C)/C=C(\C)[C@@H](O)[C@@H](OC)C(=O)[C@H](C)C[C@H](C)/C=C/C=C/C=C/1C [Everolimus] + O=C(c1cc(Cc2n[nH]c(=O)c3ccccc23)ccc1F)N1CCN(C(=O)C2CC2)CC1 [Olaparib] (partner 8 µM)
How it was run: as §1

Everolimus + Luminespib = compound: CO[C@H]1C[C@@H]2CC[C@@H](C)[C@@](O)(O2)C(=O)C(=O)N2CCCC[C@H]2C(=O)O[C@H]([C@H](C)C[C@@H]2CC[C@@H](OCCO)[C@H](OC)C2)CC(=O)[C@H](C)/C=C(\C)[C@@H](O)[C@@H](OC)C(=O)[C@H](C)C[C@H](C)/C=C/C=C/C=C/1C [Everolimus] + CCNC(=O)c1noc(-c2cc(C(C)C)c(O)cc2O)c1-c1ccc(CN2CCOCC2)cc1 [Luminespib] (partner 0.01 µM)
How it was run: as §1

Everolimus + Decitabine = compound: CO[C@H]1C[C@@H]2CC[C@@H](C)[C@@](O)(O2)C(=O)C(=O)N2CCCC[C@H]2C(=O)O[C@H]([C@H](C)C[C@@H]2CC[C@@H](OCCO)[C@H](OC)C2)CC(=O)[C@H](C)/C=C(\C)[C@@H](O)[C@@H](OC)C(=O)[C@H](C)C[C@H](C)/C=C/C=C/C=C/1C [Everolimus] + Nc1ncn([C@H]2C[C@H](O)[C@@H](CO)O2)c(=O)n1 [Decitabine] (partner 2 µM)
How it was run: as §1

Row | Cell Line | relative viability (Everolimus + Lapatinib; first compound 0.01 µM) | relative viability (Everolimus + Lapatinib; first compound 0.03162 µM) | relative viability (Everolimus + Lapatinib; first compound 0.1 µM) | relative viability (Everolimus + Lapatinib; first compound 0.3162 µM) | relative viability (Everolimus + Lapatinib; first compound 1 µM) | relative viability (Everolimus + Olaparib; first compound 0.01 µM) | relative viability (Everolimus + Olaparib; first compound 0.03162 µM) | relative viability (Everolimus + Olaparib; first compound 0.1 µM) | relative viability (Everolimus + Olaparib; first compound 0.3162 µM) | relative viability (Everolimus + Olaparib; first compound 1 µM) | relative viability (Everolimus + Luminespib; first compound 0.01 µM) | relative viability (Everolimus + Luminespib; first compound 0.03162 µM) | relative viability (Everolimus + Luminespib; first compound 0.1 µM) | relative viability (Everolimus + Luminespib; first compound 0.3162 µM) | relative viability (Everolimus + Luminespib; first compound 1 µM) | relative viability (Everolimus + Decitabine; first compound 0.01 µM) | relative viability (Everolimus + Decitabine; first compound 0.03162 µM) | relative viability (Everolimus + Decitabine; first compound 0.1 µM) | relative viability (Everolimus + Decitabine; first compound 0.3162 µM) | relative viability (Everolimus + Decitabine; first compound 1 µM)
1 | COR-L 105 | 0.351 | 0.288 | 0.316 | 0.38 | 0.262 | 0.649 | 0.627 | 0.497 | 0.581 | 0.516 | 0.405 | 0.392 | 0.333 | 0.313 | 0.365 | 0.516 | 0.529 | 0.522 | 0.502 | 0.548
2 | ABC-1 | 0.925 | 1.13 | 0.751 | 0.816 | 0.873 | 1.17 | – | 1 | – | 0.749 | – | 0.342 | 0.316 | 0.371 | 0.355 | 0.637 | – | 0.603 | – | 0.883
3 | HCC-15 | 0.899 | 0.899 | 0.881 | 0.981 | 0.871 | 0.723 | 0.796 | 0.642 | 0.656 | 0.647 | 0.45 | 0.449 | 0.368 | 0.387 | 0.191 | 0.597 | 0.463 | 0.511 | 0.604 | 0.482
4 | NCI-H2170 | 0.214 | 0.242 | 0.228 | 0.222 | 0.247 | 0.361 | 0.285 | 0.318 | 0.329 | 0.316 | 0.291 | 0.175 | 0.229 | 0.316 | 0.198 | 0.287 | 0.274 | 0.257 | 0.28 | 0.262
5 | PC-3 [JPC-3] | 0.372 | 0.382 | 0.346 | 0.359 | 0.412 | 1.07 | 1.21 | 1.1 | – | 1.05 | 0.466 | 0.517 | 0.493 | 0.372 | 0.474 | 0.813 | 0.794 | 0.687 | – | 0.802
6 | NCI-H1993 | 0.725 | 0.69 | 0.649 | 0.791 | 0.807 | 0.584 | 0.364 | 0.499 | 0.529 | 0.558 | 0.528 | 0.459 | 0.366 | 0.456 | 0.58 | 0.468 | 0.542 | 0.433 | 0.46 | 0.447
7 | NCI-H358 | 0.309 | 0.338 | 0.377 | 0.345 | 0.295 | 0.424 | 0.384 | 0.303 | 0.325 | 0.389 | 0.325 | 0.237 | 0.196 | 0.214 | 0.206 | 0.204 | 0.195 | 0.218 | 0.19 | 0.205
8 | NCI-H1915 | 0.903 | 0.904 | 0.877 | 0.826 | 0.88 | 0.282 | 0.31 | 0.285 | 0.26 | 0.288 | 0.722 | 0.714 | 0.478 | 0.532 | 0.579 | 0.25 | 0.234 | 0.238 | 0.273 | 0.263
9 | RERF-LC-KJ | 0.636 | 0.597 | 0.503 | 0.487 | 0.486 | 0.666 | 0.61 | 0.593 | 0.605 | 0.606 | 0.895 | 0.834 | 0.807 | 0.848 | 0.646 | 0.535 | 0.594 | 0.552 | 0.541 | 0.45
10 | LOU-NH91 | 0.553 | 0.56 | 0.58 | 0.615 | 0.546 | 0.744 | 0.829 | 0.789 | 0.788 | 0.777 | 0.284 | 0.307 | 0.317 | 0.321 | 0.314 | 0.718 | 0.76 | 0.702 | 0.699 | 0.686
11 | NCI-H2347 | 0.813 | 1.07 | 0.663 | 0.868 | 0.811 | 0.565 | 0.54 | 0.527 | 0.525 | 0.505 | 0.497 | 0.367 | 0.301 | 0.332 | 0.362 | 0.567 | 0.509 | 0.553 | 0.526 | 0.548
12 | NCI-H2126 | 0.458 | 0.485 | 0.426 | 0.472 | 0.501 | 0.714 | 0.583 | 0.502 | 0.602 | 0.603 | 0.532 | 0.457 | 0.42 | 0.564 | 0.381 | 0.484 | 0.421 | 0.452 | 0.505 | 0.497
13 | HCC-827 | 0.191 | 0.13 | 0.163 | 0.204 | 0.153 | 0.73 | 0.672 | 0.681 | 0.501 | 0.645 | 0.346 | 0.33 | 0.204 | 0.203 | 0.199 | 0.282 | 0.234 | 0.303 | 0.319 | 0.287
14 | NCI-H3122 | 1.09 | 1.16 | 1.06 | 1.07 | 0.951 | 0.638 | 0.643 | 0.497 | 0.476 | 0.579 | 0.105 | 0.0862 | 0.0973 | 0.113 | 0.0788 | 0.267 | 0.253 | 0.213 | 0.215 | 0.203
15 | HOP-62 | 0.646 | 0.569 | 0.533 | 0.659 | 0.782 | 0.354 | 0.434 | 0.5 | 0.505 | 0.339 | 0.918 | 0.853 | 0.782 | 0.919 | 0.926 | 0.223 | 0.278 | 0.195 | 0.251 | 0.321
16 | HCC-44 | 1.01 | 1.11 | 1.12 | 1.01 | 0.938 | 1 | 1.17 | 1.07 | 1.06 | 1.03 | 1.02 | 0.851 | 1.05 | 0.938 | 1.56 | 0.933 | 0.975 | 0.937 | 0.954 | 0.896
